Data on eight molecules can be found in US11850449B2, “Irradiation method and system” (priority 2017, dated 2023).

Series [1] can be described thus: Example 2 Monte Carlo simulation and treatment plan, neutron capture dose enhancement in PMMA target. As to conditions: based on photon activated therapy studies with the same agent, corrected for expected Auger electron production. As for the experimental part:
In a further example, a similar set of simulations was conducted. Significance was arbitrarily defined as an average 10% increase in photon-equivalent dose within a tumour resulting from the administration of a non-toxic bolus of neutron-capture agent (though it is envisaged that the method of this embodiment can be used with any desired dose increase factor). To do so, the concentration of neutron capture agent required to provide a 10% increase in effective photon-equivalent dose is determined for a simple simulated therapeutic proton/heavy ion treatment plan, and this is compared with concentrations reported in the literature.
The first step is to evaluate the neutron fluence resulting from pencil-beam irradiation of a point within a target volume. […] Dose and neutron fluence distributions were recorded for each simulation; corresponding distributions at energies in between these were also estimated by interpolating between the distributions obtained at these energies. […] The primary particle fluence at each energy was then weighted such that an approximately flat biological effective dose (BED) was delivered to a defined treatment volume by the ion beam; two 50 mm cubic volumes were evaluated, one centred at a depth of 125 mm and a second centred at a depth of 165 mm. […]

Series [2] concerns T98G (JCRB9041, human glioblastoma multiforme) cell lines. The series can be described thus: Example 3 T98G cell proliferation (Resazurin/alamarBlue) after carbon or helium ion beam irradiation with neutron capture agents. The class given is cell-based. The note with it: 500 μM; for Cell proliferation: 24 h incubation prior to irradiation, up to 168 hours, vs flasks without compound; for radiosensitisation: carbon and helium ion beams. As for the experimental part:
The approach of the aforementioned embodiments was tested experimentally. A series of proof-of concept experiments were performed at Japan's HIMAC facility, to quantify the effective increase in biological dose which can be achieved in vitro. Cultured T98-G cancer cells adhered to the inner surface of T25 cell culture flasks were irradiated in carbon and helium ion beams, with and without the presence of realistic concentrations of neutron capture agents.
Three frozen vials of T98G (JCRB9041, human glioblastoma multiforme) cell lines were purchased from the National Institutes of Biomedical Innovation, Health and Nutrition, JCRB Cell Bank and used throughout the experiments.
Prior to the start of the experiments, the cells were revived and passaged twice prior to seeding 160 T25 flasks, with 5 mL of complete growth medium (DMEM+10% FBS). Flasks were incubated at 37±1° C. in an atmosphere of 5±1% CO2.
The experiments utilised ^12C and ^4He beams with 60 mm Spread Out Bragg Peak (SOBP60) spectra, and an approximate dose rate of 1 Gy/min. Cell viability was measured as a function of ion beam dose in cultured T98-G human glioblastoma cells, with and without the presence of two neutron capture agents, ^10B enriched 4-borono-L-phenylalanine (^10B-BPA) and 2,2′,2″-(10-(4-(((triphenylphosphonio)methyl)benzyl)-1,4,7,10-tetraazacyclododecane-1,4,7-triyl)triacetatogadolinium(III) trifluoroacetate (157Gd-DOTA-TPP salt complex).
A set of 300×300×10 mm^3 PMMA slabs were used in conjunction with a PMMA receptacle for holding two flasks. With this arrangement, the flasks containing the cell cultures were positioned inside a cubic 300×300×300 mm^3 PMMA phantom in a plane normal to the incident beam, at a depth corresponding to the midpoint of the SOBP60 as illustrated schematically in FIG. 13. The neutron fluence predicted via Monte Carlo simulation in Example 2 is overlayed on this figure for illustrative purposes. The ion beams were ^12C and ^4He beams with dimensions of 100×100 mm^2 (width×height) and SOBP60 energy spectra with mean energies of 290 MeV/u and 150 MeV/u, respectively (corresponding to SOBP depth ranges of approximately 8 to 14 cm in PMMA).
The irradiation campaign was conducted on four consecutive nights (carbon ion beam irradiations were conducted on the first and third nights, while helium ion beam irradiations were performed on the second and fourth night) at the HIMAC biological beamline. Forty flasks were irradiated during each night, at 80% to 90% confluence (corresponding to ˜3.75×10^5 cells per flask). Twenty-four hours prior to each irradiation, 10 flasks were incubated with 500 μM of ^10B-BPA, while a second set of 10 flasks were incubated with 500 μM of ^157Gd-DOTA-TPP salt complex. The remaining 20 flasks were used as control.
On the night of irradiation, the beam was calibrated for dose rate and dose-depth deposition and the dose-rate at the centre of the Bragg peak (corresponding to the location of the cells) was measured with an ionisation chamber. Immediately prior to irradiation, flasks were filled with a complete DMEM media (˜30 mL per flask). Flasks were irradiated in pairs, with flasks containing the neutron capture agents irradiated together, followed by corresponding control flasks (containing no neutron capture agent). Ten different dose values were used with each ion beam: 0, 0.9, 1.8, 2.3, 2.7, 3.2, 3.6, 4.1, 4.6, and 7.3 Gy for helium, and 0, 0.6, 1.3, 1.6, 1.9, 2.2, 2.5, 2.8, 3.1 and 5 Gy for carbon.
After irradiation, the medium was aseptically removed from the irradiated flasks. Cells were washed with 5 mL of DPBS which was removed and discarded. Cells were then trypsinised, detached from the flasks and resuspended in completed growth medium. Cell count and viability was recorded.
Sixteen 96-well plates were populated each night, each well containing approximately 375 cells, and each set of three wells corresponding to one flask. […]
(In general: Alamar Blue is a resazurin reagent that responds to reducing activity.)

Series [3] relates to liver tumours. As to conditions: reported [26, 27, 39]; cited from earlier work.
Series [4] concerns normal tissues. As to conditions: reported; cited from earlier work.
The conditions of series [5]: in vivo; cited from earlier work.
Series [6] has as its system liver. The note with it: normal liver; reported [26, 27, 39]; cited from earlier work.
Series [7] relates to brain tumour cells. The note with it: brain tumour cells / brain tumours; reported; cited from earlier work.
For series [8] the following is noted: in vivo, cited from earlier work.
The conditions of series [9]: value used in Example 2 dose relation; cited from earlier work.
Series [10] concerns glioblastoma cell nuclei. As to conditions: cited from earlier work.
For series [11] the following is noted: in vivo; cited from earlier work. This is another data set of the same source.
Series [12] has as its system T98G (glioblastoma, in vitro). The note with it: cited from earlier work.
The conditions of series [13]: rat, in vivo; cited from earlier work.
The subject of series [14] is GBM (in vitro). The note with it: cited from earlier work.

Read-outs that look alike come from different tables or passages of the source.

In the case of `O=C([O-])C(F)(F)F.O=C([O-])CN1CCN(CC(=O)[O-])CCN(Cc2ccc(C[P+](c3ccccc3)(c3ccccc3)c3ccccc3)cc2)CCN(CC(=O)[O-])CC1.[Gd+3]` [^157Gd-DOTA-TPP salt complex], the “compound biological effectiveness CBE” value in [1] was “≈ 40”. The Cell proliferation result in series [2] (carbon beam 0 to 5 Gy) and in [2] (helium beam) was “substantially reduced” throughout. Also, in series [2], the radiosensitisation entry is “clear and substantial radiosensitisation”.
Consider `N[C@@H](Cc1ccc([10B](O)O)cc1)C(=O)O` [BPA, ^10B-4-borono-L-phenylalanine], for which the “CBE, tumour” value in series [3] is 9.94. Also, in series [4], the CBE is recorded as 0.9-1.3. For the same molecule, in [5], the “concentration ratio (tumour:normal tissue)” value is listed as 2.8. Besides, the “CBE, liver” value in [6] was 4.25. The CBE in series [7] is 3.6-3.8. Further, the Cell proliferation result in series [2] (carbon beam 0 to 5 Gy) is “substantially reduced”. For the same molecule, the Cell proliferation entry in series [2] (helium beam) was “substantially reduced”. In [2], the radiosensitisation entry is “clear and substantial radiosensitisation”. In series [8] (iv), the “Concentration (PPM)” value is 30 ± 12 PPM and the “Concentration ratio (tumour to healthy tissue)” value is 5:1 ^. Moreover, in series [8], the “highest BPA concentration reported in the literature” value is on record as 125 ppm and the “tumour to healthy tissue concentration ratio” value is 5:1-8:1. Also, in series [9], the “compound biological effectiveness CBE” value is on record as 3.8.
As for `CC(=O)[O-].CC(=O)[O-].CCc1c(CC)c2cc3nc(cnc4cc(OCCOCCOCCOC)c(OCCOCCOCCOC)cc4ncc4nc(cc1[n-]2)C(CCCO)=C4C)C(C)=C3CCCO.O.[Gd+3]` [motexafin-gadolinium], in series [10], the “prolonged retention of gadolinium in vitro” value is “up to 2 months” and the “uptake in glioblastoma cell nuclei” value was 90%. In addition, in [11], the “tumour to healthy tissue uptake ratio” value was 70:1.
`[Gd]` [gadolinium]: in series [12], the “values previously published, concentration” value is reported as “up to 3000 ppm”.
On to boron, for which the “values previously published, tumour concentration” value in series [13] is “up to 231 ppm”.
On to “sodium mercaptoundecahydro-closo-dodecaborate [BSH]”, for which the “CBE, tumour” value in series [3] is on record as 4.22. Besides, the “concentration ratio (tumour:normal tissue)” value in series [5] is reported as 0.3. In addition, in series [6], the “CBE, liver” value is 0.94. The “tumour to healthy tissue concentration ratio” value in [8] is 1.2-3.5.
`O=C([O-])CN(CCN(CC(=O)[O-])CC(=O)O)CCN(CC(=O)[O-])CC(=O)O.[Gd+3]` [Gd-DTPA]: the “accumulation within the cell nucleus” value in series [14] (reported [40]) is listed as “neither accumulates to significant concentration”.
Turning to `O=C([O-])CN1CCN(CC(=O)[O-])CCN(CC(=O)O)CCN(CC(=O)[O-])CC1.[Gd+3]` [Gd-DOTA], in series [14], the “Concentration (ppM)” value is reported as 140 (1 h) ppM and the “accumulation within the cell nucleus” value is reported as “neither accumulates to significant concentration”.
